Reference: patent publication US20160158200A1, “Combinations of Hepatitis C Virus Inhibitors” (priority 2013, published 2016)

What follows are molecules tested on HCV genotype-1a variant with glutamine 30 changed to glutamate in the NS5A protein. Conditions: test compound titrated with BMS-790052 fixed at 200 nM; genotype 1a Q30E replicon.
Type: cell-based
In short: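 Synergy was assessed by combining several fixed amounts of an NS5A-targeting compound with a titration of the second compound of interest.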

| SMILES | Fold-Synergistic 1a (Q30E) [fold] |
| --- | --- |
| CC(C)(C)C(NC(=O)C1COCCN1CC(F)(F)F)c1nc(-c2ccc(-c3ccc(-c4c[nH]c(C(NC(=O)C5COCCN5CC(F)(F)F)C(C)(C)C)n4)cc3)cc2)c[nH]1 [Compound L-68] | >100 |
| CC(C)(C)C(NC(=O)C1(O)CCC1)c1nc(-c2ccc(-c3ccc(-c4c[nH]c(C(NC(=O)C5(O)CCC5)C(C)(C)C)n4)cc3)cc2)c[nH]1 [Compound L-71] | >100 |
| COC(=O)NC(C(=O)NC(c1nc(-c2ccc(-c3ccc(-c4c[nH]c(C(NC(=O)C(NC(=O)OC)C5CC(C)OC(C)C5)C(C)(C)C)n4)cc3)cc2)c[nH]1)C(C)(C)C)C1CC(C)OC(C)C1 [Compound L-72] | >10 |
| CC(C)(C)C(NC(=O)C1(O)CCCC1)c1nc(-c2ccc(-c3ccc(-c4c[nH]c(C(NC(=O)C5(O)CCCC5)C(C)(C)C)n4)cc3)cc2)c[nH]1 [Compound L-73] | >100 |
| CC(C)(C)C(NC(=O)C(O)C1CCCCC1)c1nc(-c2ccc(-c3ccc(-c4c[nH]c(C(NC(=O)C(O)C5CCCCC5)C(C)(C)C)n4)cc3)cc2)c[nH]1 [Compound L-74] | >100 |
| CC(C)(C)[C@H](NC(=O)C(C)(O)C1(C)CC1)c1nc(-c2ccc(-c3ccc(-c4c[nH]c([C@@H](NC(=O)C(C)(O)C5(C)CC5)C(C)(C)C)n4)cc3)cc2)c[nH]1 (stereo partly drawn) [Compound L-93b] | >100 |
| CC(C)(C)[C@H](NC(=O)[C@](C)(O)c1ccccc1)c1nc(-c2ccc(-c3ccc(-c4c[nH]c([C@@H](NC(=O)[C@](C)(O)c5ccccc5)C(C)(C)C)n4)cc3)cc2)c[nH]1 [Compound L-94] | >100 |
| CC(C)(C)[C@H](NC(=O)[C@@](C)(O)c1ccccc1)c1nc(-c2ccc(-c3ccc(-c4c[nH]c([C@@H](NC(=O)[C@@](C)(O)c5ccccc5)C(C)(C)C)n4)cc3)cc2)c[nH]1 [Compound L-95] | >100 |
| CC(C)(C)[C@H](NC(=O)C1(NCC(F)(F)F)CC1)c1nc(-c2ccc(-c3ccc(-c4c[nH]c([C@@H](NC(=O)C5(NCC(F)(F)F)CC5)C(C)(C)C)n4)cc3)cc2)c[nH]1 [Compound L-96] | >100 |
| CO[C@H](C)[C@H](NC(=O)[C@@]1(C)CCC(F)(F)CO1)c1nc(-c2ccc(-c3ccc(-c4c[nH]c([C@@H](NC(=O)[C@@]5(C)CCC(F)(F)CO5)[C@@H](C)OC)n4)cc3)cc2)c[nH]1 [Compound L-97] | >100 |
| CO[C@H](C)[C@H](NC(=O)C1CCC(F)(F)CC1)c1nc(-c2ccc(-c3ccc(-c4c[nH]c([C@@H](NC(=O)C5CCC(F)(F)CC5)[C@@H](C)OC)n4)cc3)cc2)c[nH]1 [Compound L-98] | <10 |
| COCC(NC(=O)C1CCC(F)(F)CC1)c1nc(-c2ccc(-c3ccc(-c4c[nH]c(C(COC)NC(=O)C5CCC(F)(F)CC5)n4)cc3)cc2)c[nH]1 [Compound L-102] | >100 |
| COCC(NC(=O)C(=O)N1CCC(F)(F)CC1)c1nc(-c2ccc(-c3ccc(-c4c[nH]c(C(COC)NC(=O)C(=O)N5CCC(F)(F)CC5)n4)cc3)cc2)c[nH]1 [Compound L-103] | >10 |
| COCC(NC(=O)C1(C(F)(F)F)CCC1)c1nc(-c2ccc(-c3ccc(-c4c[nH]c(C(COC)NC(=O)C5(C(F)(F)F)CCC5)n4)cc3)cc2)c[nH]1 [Compound L-104] | >100 |
| COCC(NC(=O)C(C)(C)C)c1nc(-c2ccc(-c3ccc(-c4c[nH]c(C(COC)NC(=O)C(C)(C)C)n4)cc3)cc2)c[nH]1 [Compound L-105] | >100 |
| O=C(N[C@H]1CCC[C@H]1c1nc(-c2ccc(-c3ccc(-c4c[nH]c([C@@H]5CCC[C@@H]5NC(=O)C5CCC(F)(F)CC5)n4)cc3)cc2)c[nH]1)C1CCC(F)(F)CC1 [Compound L-106] | >100 |
| CC(C)(C)C(=O)N[C@H]1CCC[C@H]1c1nc(-c2ccc(-c3ccc(-c4c[nH]c([C@@H]5CCC[C@@H]5NC(=O)C(C)(C)C)n4)cc3)cc2)c[nH]1 [Compound L-107] | >100 |
| CN(C)S(=O)(=O)N[C@H](c1nc(-c2ccc(-c3ccc(-c4c[nH]c([C@@H](NS(=O)(=O)N(C)C)C(C)(C)C)n4)cc3)cc2)c[nH]1)C(C)(C)C [Compound L-116] | >100 |
| Cc1ccc(S(=O)(=O)NC(c2nc(-c3ccc(-c4ccc(-c5c[nH]c(C(NS(=O)(=O)c6ccc(C)cc6)C(C)(C)C)n5)cc4)cc3)c[nH]2)C(C)(C)C)cc1 [Compound L-117] | >100 |
| CC(C)(C)[C@H](NS(=O)(=O)C1CCCCC1)c1nc(-c2ccc(-c3ccc(-c4c[nH]c([C@@H](NS(=O)(=O)C5CCCCC5)C(C)(C)C)n4)cc3)cc2)c[nH]1 [Compound L-118] | >100 |
| CC(C)(C)[C@H](NS(=O)(=O)N1CCOCC1)c1nc(-c2ccc(-c3ccc(-c4c[nH]c([C@@H](NS(=O)(=O)N5CCOCC5)C(C)(C)C)n4)cc3)cc2)c[nH]1 [Compound L-119] | >100 |

| SMILES | Fold-Synergistic 1a (Q30E) [fold] |
| --- | --- |
| CC(C)(C)[C@H](NS(=O)(=O)C1(C)CC1)c1nc(-c2ccc(-c3ccc(-c4c[nH]c([C@@H](NS(=O)(=O)C5(C)CC5)C(C)(C)C)n4)cc3)cc2)c[nH]1 [Compound L-120] | >100 |
| CCN(CC)S(=O)(=O)NC(c1nc(-c2ccc(-c3ccc(-c4c[nH]c(C(NS(=O)(=O)N(CC)CC)C(C)(C)C)n4)cc3)cc2)c[nH]1)C(C)(C)C [Compound L-121] | >100 |
| COCC(C)(COC)C(=O)NC(c1nc(-c2ccc(-c3ccc(-c4c[nH]c(C(NC(=O)C(C)(COC)COC)C(C)(C)C)n4)cc3)cc2)c[nH]1)C(C)(C)C [Compound L-123] | >100 |
| CC(C)(C)[C@H](NC(=O)C1(COCc2ccccc2)COC1)c1nc(-c2ccc(-c3ccc(-c4c[nH]c([C@@H](NC(=O)C5(COCc6ccccc6)COC5)C(C)(C)C)n4)cc3)cc2)c[nH]1 [Compound L-124] | >100 |
| CC(C)(C)[C@H](NC(=O)C1(CO)COC1)c1nc(-c2ccc(-c3ccc(-c4c[nH]c([C@@H](NC(=O)C5(CO)COC5)C(C)(C)C)n4)cc3)cc2)c[nH]1 [Compound L-125] | >100 |
| CC(C)(C)[C@H](NC(=O)C1(C(F)(F)F)CCC1)c1nc(-c2ccc(-c3ccc(-c4c[nH]c([C@@H](NC(=O)C5(C(F)(F)F)CCC5)C(C)(C)C)n4)cc3)cc2)c[nH]1 [Compound L-129] | >100 |
| O=C(C(=O)N1C[C@H](O)C[C@H]1c1nc(-c2ccc(-c3ccc(-c4c[nH]c([C@@H]5C[C@@H](O)CN5C(=O)C(=O)N5CCC(F)(F)CC5)n4)cc3)cc2)c[nH]1)N1CCC(F)(F)CC1 [Compound L-142] | >100 |
| C[C@H]1C[C@@H](c2nc(-c3ccc(-c4ccc(-c5c[nH]c([C@@H]6C[C@H](C)CN6C(=O)C(=O)N6CCC(F)(F)CC6)n5)cc4)cc3)c[nH]2)N(C(=O)C(=O)N2CCC(F)(F)CC2)C1 [Compound L-143] | >100 |
| CC(C)(NC(=O)CC(F)(F)F)C(=O)N[C@H](c1nc(-c2ccc(-c3ccc(-c4c[nH]c([C@@H](NC(=O)C(C)(C)NC(=O)CC(F)(F)F)C(C)(C)C)n4)cc3)cc2)c[nH]1)C(C)(C)C [Compound L-144] | >100 |
| CC(C)[C@H](NC(=O)C(C)(C)C)c1ncc(-c2ccc(-c3ccc(-c4cnc([C@@H](NC(=O)C(C)(C)C)C(C)C)o4)cc3)cc2)o1 [Compound N-2] | >100 |
| CC(C)CC(=O)N[C@H](c1ncc(-c2ccc(C#Cc3ccc(-c4cnc([C@@H](NC(=O)CC(C)C)C(C)(C)C)[nH]4)cc3)cc2)[nH]1)C(C)(C)C [Compound N-3] | >10 |
| COC(=O)N[C@H](C(=O)NC1(c2nc(-c3ccc(-c4ccc(-c5c[nH]c(C6(NC(=O)[C@@H](NC(=O)OC)C(C)C)CCC6)n5)cc4)cc3)c[nH]2)CCC1)C(C)C [Compound N-10] | <10 |
| CC(C)CC(=O)NC1(c2ncc(-c3ccc(-c4ccc(-c5cnc(C6(NC(=O)CC(C)C)CCC6)[nH]5)cc4)cc3)[nH]2)CCC1.O=C(O)C(F)(F)F.O=C(O)C(F)(F)F [Compound N-11] | <10 |
| CC(C)CC(=O)NC1(c2ncc(-c3ccc(-c4ccc(-c5cnc(C6(NC(=O)CC(C)C)CCCC6)[nH]5)cc4)cc3)[nH]2)CCCC1.O=C(O)C(F)(F)F.O=C(O)C(F)(F)F [Compound N-12] | <10 |
| CC(C)CC(=O)NC1(c2ncc(-c3ccc(-c4ccc(-c5cnc(C6(NC(=O)CC(C)C)CC=CC6)[nH]5)cc4)cc3)[nH]2)CC=CC1.O=C(O)C(F)(F)F.O=C(O)C(F)(F)F [Compound N-16] | <10 |
| CC(C)CC(=O)NC1(c2ncc(-c3ccc(-c4ccc(-c5cnc(C6(NC(=O)CC(C)C)Cc7ccccc7C6)[nH]5)cc4)cc3)[nH]2)Cc2ccccc2C1.O=C(O)C(F)(F)F.O=C(O)C(F)(F)F [Compound N-19] | <10 |
| CC(C)CC(=O)NC1(c2ncc(-c3ccc(-c4ccc(-c5cnc(C6(NC(=O)CC(C)C)CC6)[nH]5)cc4)cc3)[nH]2)CC1.O=C(O)C(F)(F)F.O=C(O)C(F)(F)F [Compound N-21] | <10 |
| CC(C)CC(=O)NC1(c2ncc(-c3ccc(-c4ccc(-c5cnc(C6(NC(=O)CC(C)C)CCCCC6)[nH]5)cc4)cc3)[nH]2)CCCCC1.O=C(O)C(F)(F)F.O=C(O)C(F)(F)F [Compound N-24] | <10 |
| CC(C)CC(=O)NC(C)(C)c1ncc(-c2ccc(-c3ccc(-c4cnc(C(C)(C)NC(=O)CC(C)C)[nH]4)cc3)cc2)[nH]1.O=C(O)C(F)(F)F.O=C(O)C(F)(F)F [Compound N-26] | <10 |
| COC(=O)N[C@@H](C(=O)N[C@H](c1nc(-c2ccc(-c3ccc(-c4c[nH]c([C@@H](NC(=O)[C@H](NC(=O)OC)C(C)C)C(C)(C)C)n4)cc3)cc2)c[nH]1)C(C)(C)C)C(C)C [Compound N-28] | >100 |
| CC(C)(C)[C@H](NC(=O)C1CC1(F)F)c1nc(-c2ccc(-c3ccc(-c4c[nH]c([C@@H](NC(=O)C5CC5(F)F)C(C)(C)C)n4)cc3)cc2)c[nH]1 (stereo partly drawn) [Compound N-45a] | >100 |
